The values below are quoted from earlier work in patent publication US11312706B2, “Cyclohexyl acid pyrazole azines as LPA antagonists” (BRISTOL-MYERS SQUIBB COMPANY, priority 2017, dated 2022).

Series [1] has as its system human foetal lung fibroblasts. As to conditions: bronchoalveolar lavage samples of IPF subjects; cited from earlier work.
Series [2] has as its system UUO mice. As to conditions: cited from earlier work.
Series [3] relates to mouse epithelial renal cell line, MCT. The conditions noted are these: MCT cells, co-treatment with LPA; cited from earlier work.
In series [4] the test system is pancreatic cancer cell lines. The conditions noted are these: ascites from pancreatic cancer patients; cited from earlier work.
Series [5] concerns highly peritoneal metastatic pancreatic cancer cell line. The conditions noted are these: cited from earlier work.

For the compound `Cc1noc(-c2ccc(CSCCC(=O)O)cc2)c1NC(=O)OC(C)c1ccccc1Cl` (centres unmarked) [Ki16425], in series [1], the fibroblast chemotactic activity entry is “inhibited”. Also, the “development of renal fibrosis, profile” value in series [2] is “closely resembled the profile of LPA1 (−/−) mice”. Moreover, in series [3], the “induction of CTGF expression by LPA” value is listed as “almost completely suppressed”. The “in vitro migration in response to LPA and peritoneal fluid (ascites)” value in series [4] is “effectively blocked”. The “LPA-induced and ascites-induced invasion activity” value in series [5] was “blocked”.
